This passage reports IC50 results from US20260365671A1, “HETEROCYCLIC COMPOUND” (Takeda Pharmaceutical Company Limited, priority 2022, published 2026).

Some results are limits rather than exact numbers.

One assay relates to NF-κB pathway. The experiment in a line: TNF-α assay (THP-1 cells differentiated to macrophages with IFN-γ, NF-κB pathway activated with LPS; ELISA). The assay is classed as cell-based, Human. Conditions: compound 30 min, 50 ng/mL LPS 3 hours. Summed up:
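THP-1 cells differentiated with 25 ng/mL IFN-γ for 24 h, then 30 min with compounds in serum-free medium. NF-κB activated with 50 ng/mL LPS, 3 h at 37 °C. Supernatant TNF-α by ELISA; IC50 from four-parameter logistic fit of % inhibition.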
On the technique in general: An ELISA detects its analyte on a solid surface through an enzyme-linked reagent.

A further assay deals with T1, NLRP3 inflammasome (Homo sapiens, UniProt Q96P20).
T1 construct: IL-1beta HTRF
Kind of assay: IL-1β TR-FRET assay (THP-1 cells differentiated to macrophages with IFN-γ, LPS primed, ATP activated; HTRF). The assay is classed as cell-based. Particulars: THP-1 macrophages, 50 ng/mL LPS priming, compound 30 min, 20 mM ATP 2 hours. The method in brief:
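THP-1 cells differentiated with 25 ng/mL IFN-γ for 24 h, primed with 50 ng/mL LPS in serum-free medium for 24 h, then treated with compounds for 30 min before 20 mM ATP activation for 2 h at 37 °C. Secreted IL-1β quantified by HTRF; IC50 from logistic fit of % inhibition.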
(TR-FRET usually uses a lanthanide donor and a delayed reading to cut background.)

The mark [1] stands for this setting: Homo sapiens, THP-1, THP-1 macrophages.

T1 sequence (Q96P20 whole entry): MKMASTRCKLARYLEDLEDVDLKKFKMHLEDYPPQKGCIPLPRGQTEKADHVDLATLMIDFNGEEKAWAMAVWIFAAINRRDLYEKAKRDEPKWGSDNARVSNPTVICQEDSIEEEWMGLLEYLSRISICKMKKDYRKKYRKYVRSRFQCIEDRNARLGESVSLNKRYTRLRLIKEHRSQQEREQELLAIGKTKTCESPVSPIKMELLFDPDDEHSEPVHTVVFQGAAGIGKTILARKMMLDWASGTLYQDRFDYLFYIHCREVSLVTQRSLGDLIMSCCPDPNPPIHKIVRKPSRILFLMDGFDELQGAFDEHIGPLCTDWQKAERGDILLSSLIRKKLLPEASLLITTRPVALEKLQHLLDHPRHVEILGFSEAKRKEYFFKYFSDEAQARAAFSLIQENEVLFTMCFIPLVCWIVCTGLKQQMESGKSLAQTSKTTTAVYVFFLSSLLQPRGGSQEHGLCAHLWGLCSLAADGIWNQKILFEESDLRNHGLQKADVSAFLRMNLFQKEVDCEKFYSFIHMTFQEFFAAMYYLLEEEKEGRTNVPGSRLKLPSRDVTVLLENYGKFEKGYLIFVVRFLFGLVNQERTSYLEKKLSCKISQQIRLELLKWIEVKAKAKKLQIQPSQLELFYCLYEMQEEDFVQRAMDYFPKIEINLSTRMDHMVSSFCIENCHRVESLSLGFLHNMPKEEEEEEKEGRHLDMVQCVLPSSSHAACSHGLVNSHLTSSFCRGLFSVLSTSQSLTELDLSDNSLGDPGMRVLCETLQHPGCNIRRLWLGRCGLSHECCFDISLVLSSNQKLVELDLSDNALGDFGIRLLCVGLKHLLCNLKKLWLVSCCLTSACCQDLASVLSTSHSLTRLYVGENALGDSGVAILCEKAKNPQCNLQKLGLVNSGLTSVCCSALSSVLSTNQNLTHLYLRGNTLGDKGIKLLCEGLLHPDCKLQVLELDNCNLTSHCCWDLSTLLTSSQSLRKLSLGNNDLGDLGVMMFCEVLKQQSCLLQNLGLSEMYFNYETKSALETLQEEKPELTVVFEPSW

One may read the IC50 as the midpoint of a concentration-inhibition curve. Read a high IC50 as weaker potency in that assay. For `CNC(=O)N1CCC(Nc2nc3nn(-c4c(C)cc(C)cc4O)cc3s2)C1` (centres unmarked) [Example 86, 3-{[2-(2-hydroxy-4,6-dimethylphenyl)-2H-pyrazolo[3,4-d][1,3]thiazol-5-yl]amino}-N-methylpyrrolidine-1-carboxamide], the IC50 with NF-κB pathway (setting [1]) was above 30000 nM; against NLRP3 inflammasome, 300 nM.
As for `CCc1cc(C)cc(O)c1-n1cc2sc(NC[C@@H](C)O)nc2n1` [Example 87, 3-ethyl-2-(5-{[(2R)-2-hydroxypropyl]amino}-2H-pyrazolo[3,4-d][1,3]thiazol-2-yl)-5-methylphenol], the values for the IC50 in the assay with NF-κB pathway (setting [1]) and against NLRP3 inflammasome were above 30000 nM and 96 nM, respectively.
On to `COCC(=O)N1CCC(Nc2nc3nn(-c4c(C)cc(C)cc4O)cc3s2)C1` (centres unmarked) [Example 89, 1-(3-{[2-(2-hydroxy-4,6-dimethylphenyl)-2H-pyrazolo[3,4-d][1,3]thiazol-5-yl]amino}pyrrolidin-1-yl)-2-methoxyethan-1-one], for which the figures for the IC50 in the assay on NF-κB pathway (THP-1 macrophages) and against NLRP3 inflammasome were above 30000 nM and 550 nM, respectively.
As for `Cc1cc(C)c(-n2cc3sc(NC4CCN(C(=O)C(F)F)C4)nc3n2)c(O)c1` (centres unmarked) [Example 90, 2,2-difluoro-1-(3-{[2-(2-hydroxy-4,6-dimethylphenyl)-2H-pyrazolo[3,4-d][1,3]thiazol-5-yl]amino}pyrrolidin-1-yl)ethan-1-one], the IC50 with NF-κB pathway (setting [1]) is above 10000 nM; at NLRP3 inflammasome, 540 nM.
On the same counts, the results for `COC(=O)N1CCC(Nc2nc3nn(-c4c(C)cc(C)cc4O)cc3s2)C1` (centres unmarked) [Example 91, methyl 3-{[2-(2-hydroxy-4,6-dimethylphenyl)-2H-pyrazolo[3,4-d][1,3]thiazol-5-yl]amino}pyrrolidine-1-carboxylate] are above 10000 nM and 660 nM.
On the same counts, the results for `Cc1cc(C)c(-n2cc3sc(NC4CCN(C)C4)nc3n2)c(O)c1` (centres unmarked) [Example 92, 3,5-dimethyl-2-{5-[(1-methylpyrrolidin-3-yl)amino]-2H-pyrazolo[3,4-d][1,3]thiazol-2-yl}phenol] are above 30000 nM and 270 nM.
Turning to `Cc1cc(O)c(-n2cc3sc(NC[C@@H](C)O)nc3n2)c(C(C)C)c1` [Example 93, 2-(5-{[(2R)-2-hydroxypropyl]amino}-2H-pyrazolo[3,4-d][1,3]thiazol-2-yl)5-methyl-3-(propan-2-yl)phenol], the 50% inhibitory concentration (IC50) in the assay on NF-κB pathway (setting [1]) was above 30000 nM; at NLRP3 inflammasome, 280 nM.
As for `Cc1cc(O)c(-n2cc3sc(N[C@@H]4C[C@@H](F)CN(C)C4)nc3n2)c(C(C)C)c1` [Example 94, 2-(5-{[(3R,5R)-5-fluoro-1-methylpiperidin-3-yl]amino}-2H-pyrazolo[3,4-d][1,3]thiazol-2-yl)-5-methyl-3-(propan-2-yl)phenol], the half-maximal inhibitory concentration (IC50) with NF-κB pathway (setting [1]) was above 30000 nM; at NLRP3 inflammasome, 31 nM.
On the same counts, the results for `Cc1cc(C)c(-n2cc3sc(NC4CC(=O)N(C)C4)nc3n2)c(O)c1` (centres unmarked) [Example 95, 4-{[2-(2-hydroxy-4,6-dimethylphenyl)-2H-pyrazolo[3,4-d][1,3]thiazol-5-yl]amino}-1-methylpyrrolidin-2-one] are above 30000 nM and 1300 nM.
Consider `Cc1cc(C)c(-n2cc3sc(NC4CCN(C(=O)C5CC5)C4)nc3n2)c(O)c1` (centres unmarked) [Example 96, cyclopropyl(3-{[2-(2-hydroxy-4,6-dimethylphenyl)-2H-pyrazolo[3,4-d][1,3]thiazol-5-yl]amino}pyrrolidin-1-yl)methanone], for which the half-inhibitory concentration (IC50) in the assay with NF-κB pathway (setting [1]) is above 30000 nM; on NLRP3 inflammasome, 400 nM.
On the same counts, the results for `Cc1cc(C)c(-n2cc3sc(NC4CCN(C(=O)CC5CC5)C4)nc3n2)c(O)c1` (centres unmarked) [Example 97, 2-cyclopropyl-1-(3-{[2-(2-hydroxy-4,6-dimethylphenyl)-2H-pyrazolo[3,4-d][1,3]thiazol-5-yl]amino}pyrrolidin-1-yl)ethan-1-one] are above 10000 nM and 260 nM.
Taken in the same sequence, the figures for `Cc1cc(C)c(-n2cc3sc(NC4CCN(C(=O)C5(F)CC5)C4)nc3n2)c(O)c1` (centres unmarked) [Example 98, (1-fluorocyclopropyl)(3-{[2-(2-hydroxy-4,6-dimethylphenyl)-2H-pyrazolo[3,4-d][1,3]thiazol-5-yl]amino}pyrrolidin-1-yl)methanone] were above 30000 nM and 460 nM.
Taken in the same sequence, the figures for `Cc1cc(C)c(-n2cc3sc(NC4CCN(C(=O)C5(C#N)CC5)C4)nc3n2)c(O)c1` (centres unmarked) [Example 99, 1-(3-{[2-(2-hydroxy-4,6-dimethylphenyl)-2H-pyrazolo[3,4-d][1,3]thiazol-5-yl]amino}pyrrolidine-1-carbonyl)cyclopropane-1-carbonitrile] were above 30000 nM and 250 nM.
Turning to `Cc1cc(C)c(-n2cc3sc(NC4CCN(S(C)(=O)=O)C4)nc3n2)c(O)c1` (centres unmarked) [Example 100, 2-(5-{[1-(methanesulfonyl)pyrrolidin-3-yl]amino}-2H-pyrazolo[3,4-d][1,3]thiazol-2-yl)-3,5-dimethylphenol], the IC50 was above 30000 nM in the assay on NF-κB pathway (setting [1]) and 620 nM at NLRP3 inflammasome.
Taken in the same sequence, the figures for `Cc1cc(C)c(-n2cc3sc(NC4CCN(S(=O)(=O)C5CC5)C4)nc3n2)c(O)c1` (centres unmarked) [Example 101, 2-(5-{[1-(cyclopropanesulfonyl)pyrrolidin-3-yl]amino}-2H-pyrazolo[3,4-d][1,3]thiazol-2-yl)-3,5-dimethylphenol] were above 30000 nM and 420 nM.
Taken in the same sequence, the figures for `Cc1cc(C)c(-n2cc3sc(NC4CCN(C(=O)C(C)(C)O)C4)nc3n2)c(O)c1` (centres unmarked) [Example 102, 2-hydroxy-1-(3-{[2-(2-hydroxy-4,6-dimethylphenyl)-2H-pyrazolo[3,4-d][1,3]thiazol-5-yl]amino}pyrrolidin-1-yl)-2-methylpropan-1-one] were above 30000 nM and 280 nM.
As to `Cc1cc(C)c(-n2cc3sc(NC4CCN(C)C4=O)nc3n2)c(O)c1` (centres unmarked) [Example 103, 3-{[2-(2-hydroxy-4,6-dimethylphenyl)-2H-pyrazolo[3,4-d][1,3]thiazol-5-yl]amino}-1-methylpyrrolidin-2-one], the results for the concentration for half-maximal inhibition (IC50) in the assay with NF-κB pathway (setting [1]) and on NLRP3 inflammasome were above 30000 nM and 810 nM, respectively.
Turning to `Cc1cc(OC(F)F)cc(O)c1-n1cc2sc(N[C@@H]3C[C@@H](F)CN(C)C3)nc2n1` [Example 107, 5-(difluoromethoxy)-2-(5-{[(3R,5R)-5-fluoro-1-methylpiperidin-3-yl]amino}-2H-pyrazolo[3,4-d][1,3]thiazol-2-yl)-3-methylphenol], the 50% inhibitory concentration (IC50) was above 30000 nM in the assay on NF-κB pathway (setting [1]) and 75 nM against NLRP3 inflammasome.
With `CC(=O)N1CCCC(Nc2nc3nn(-c4c(C)cc(C)cc4O)cc3s2)C1` (centres unmarked) [Example 108, 1-(3-{[2-(2-hydroxy-4,6-dimethylphenyl)-2H-pyrazolo[3,4-d][1,3]thiazol-5-yl]amino}piperidin-1-yl)ethan-1-one], the values for the half-inhibitory concentration (IC50) with NF-κB pathway (setting [1]) and on NLRP3 inflammasome were above 30000 nM and 610 nM, respectively.
Taken in the same sequence, the figures for `CCC(=O)N1CCCC(Nc2nc3nn(-c4c(C)cc(C)cc4O)cc3s2)C1` (centres unmarked) [Example 109, 1-(3-{[2-(2-hydroxy-4,6-dimethylphenyl)-2H-pyrazolo[3,4-d][1,3]thiazol-5-yl]amino}piperidin-1-yl)propan-1-one] were above 30000 nM and 590 nM.
Regarding `COC(=O)N1CCCC(Nc2nc3nn(-c4c(C)cc(C)cc4O)cc3s2)C1` (centres unmarked) [Example 110, methyl 3-{[2-(2-hydroxy-4,6-dimethylphenyl)-2H-pyrazolo[3,4-d][1,3]thiazol-5-yl]amino}piperidine-1-carboxylate], the IC50 in the assay with NF-κB pathway (setting [1]) is above 30000 nM; at NLRP3 inflammasome it was 990 nM.
Taken in the same sequence, the figures for `CNC(=O)N1CCCC(Nc2nc3nn(-c4c(C)cc(C)cc4O)cc3s2)C1` (centres unmarked) [Example 111, 3-{[2-(2-hydroxy-4,6-dimethylphenyl) 2H-pyrazolo[3,4-d][1,3]thiazol-5-yl]amino}-N-methyl-piperidine-1-carboxamide] were above 30000 nM and 810 nM.
Consider `Cc1cc(C)c(-n2cc3sc(NC4CCCN(S(C)(=O)=O)C4)nc3n2)c(O)c1` (centres unmarked) [Example 112, 2-(5-{[1-(methanesulfonyl)piperidin-3-yl]amino}-2H-pyrazolo[3,4-d][1,3]thiazol-2-yl)-3,5-dimethylphenol], for which the concentration for half-maximal inhibition (IC50) was above 10000 nM with NF-κB pathway (setting [1]) and 550 nM at NLRP3 inflammasome.
On the same counts, the results for `Cc1cc(C)c(-n2cc3sc(NC4CCCN(C(=O)CC(F)F)C4)nc3n2)c(O)c1` (centres unmarked) [Example 113, 3,3-difluoro-1-(3-{[2-(2-hydroxy-4,6-dimethylphenyl)-2H-pyrazolo[3,4-d][1,3]thiazol-5-yl]amino}piperidin-1-yl)propan-1-one] are above 30000 nM and 510 nM.
Regarding `COC(C)(C)CNc1nc2nn(-c3c(C)cc(C)cc3O)cc2s1` [Example 114, 2-{5-[(2-methoxy-2-methylpropyl)amino]-2H-pyrazolo[3,4-d][1,3]thiazol-2-yl}-3,5-dimethylphenol], the IC50 was above 10000 nM in the assay with NF-κB pathway (setting [1]) and 1000 nM against NLRP3 inflammasome.
With `Cc1cc(C)c(-n2cc3sc(NC4CCC(=O)N(C)C4)nc3n2)c(O)c1` (centres unmarked) [Example 115, 5-{[2-(2-hydroxy-4,6-dimethylphenyl)-2H-pyrazolo[3,4-d][1,3]thiazol-5-yl]amino}-1-methylpiperidin-2-one], the values for the half-maximal inhibitory concentration (IC50) in the assay on NF-κB pathway (setting [1]) and at NLRP3 inflammasome were above 30000 nM and 490 nM, respectively.
With `Cc1cc(C)c(-n2cc3sc(NC[C@@H]4CCCO4)nc3n2)c(O)c1` [Example 116, 3,5-dimethyl-2-[5-({[(2S)-oxolan-2-yl]methyl}amino)-2H-pyrazolo[3,4-d][1,3]thiazol-2-yl]phenol], the IC50 was above 30000 nM in the assay on NF-κB pathway (setting [1]) and 1100 nM against NLRP3 inflammasome.
Taken in the same sequence, the figures for `Cc1cc(C)c(-n2cc3sc(NC[C@H]4CCCO4)nc3n2)c(O)c1` [Example 117, 3,5-dimethyl-2-[5-({[(2R)-oxolan-2-yl]methyl}amino)-2H-pyrazolo[3,4-d][1,3]thiazol-2-yl]phenol] were above 10000 nM and 1300 nM.
